Experimental data: PubChem BioAssay AID1645864 (Buhrlage Lab, Dana-Farber Cancer Institute and Novartis …, 2021)
Activity calls are given as the source filed them.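 The calls were made as follows: active = maximal inhibition of USP17 at or above 30% in the confirmation dose-response, a value not among the printed readouts; inactive = the rest.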

These compounds were tested against Ubiquitin carboxyl-terminal hydrolase 17-like protein 5 (Homo sapiens) (UniProt A8MUK1) (assay: ubiquitin-specific protease 17 DUB inhibitors, concentration-effect assay, cell-free, verification of initial screening actives (AID 1645864)). Settings: purified USP17, ubiquitin-rhodamine cleavage fluorescence, 3 h.
Sequence of Ubiquitin carboxyl-terminal hydrolase 17-like protein 5 (Homo sapiens) (A8MUK1 whole entry, looked up): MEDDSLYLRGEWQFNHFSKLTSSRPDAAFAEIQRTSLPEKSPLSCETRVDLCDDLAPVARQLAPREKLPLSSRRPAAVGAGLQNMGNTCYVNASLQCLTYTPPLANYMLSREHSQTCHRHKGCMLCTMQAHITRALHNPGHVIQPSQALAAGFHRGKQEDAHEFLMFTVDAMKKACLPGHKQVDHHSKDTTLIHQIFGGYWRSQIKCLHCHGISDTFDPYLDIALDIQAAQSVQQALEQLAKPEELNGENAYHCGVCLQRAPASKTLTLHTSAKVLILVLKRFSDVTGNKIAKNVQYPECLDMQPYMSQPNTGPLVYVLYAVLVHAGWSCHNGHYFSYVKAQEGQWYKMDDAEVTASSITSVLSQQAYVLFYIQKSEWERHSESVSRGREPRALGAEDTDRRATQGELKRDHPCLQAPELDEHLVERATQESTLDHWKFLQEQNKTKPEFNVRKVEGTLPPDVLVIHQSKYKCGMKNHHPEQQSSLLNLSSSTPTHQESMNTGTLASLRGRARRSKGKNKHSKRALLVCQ
In the case of `CCCNC(=O)c1ccn(-c2ccc3ccc(-c4cnn(C)c4)cn23)n1`, the IC50 is reported as > 50 µM (inactive). `O=C(NCc1ccc2c(c1)OCO2)c1nn(C23CC4CC(CC(C4)C2)C3)cc1[N+](=O)[O-]` was tested, and the IC50 was > 50 µM (inactive). `CCc1cc2c(=O)[nH]c(Cc3ccc(OC)cc3)nc2s1` showed an IC50 of 22.5 µM. `CS(=O)(=O)N1CCCN(c2nc3cc(Cl)ccc3n3cccc23)CC1` was tested, and the IC50 was > 50 µM (inactive). For `CCOC(=O)c1cnc(C(F)(F)F)nc1Sc1n[nH]c(-c2cccs2)n1`, the IC50 was > 50 µM (inactive). With `O=C1c2ccccc2-n2c1nc1ccccc1c2=O` the IC50 was 4.91 µM. Work on `O=C(c1cccnc1)N1CCC2(CC1)CC1(CO2)Nc2ccccc2-n2cccc21` (centres undefined) yielded an IC50 of 21.4 µM. With `Cc1cc(O)c(=O)cc2c1C[C@H]1CC(C)(C)/C=C/C[C@@]3(C)Oc4cc(=O)c(O)cc(C)c4C[C@@H]3C[C@H](O)[C@]1(C)O2` the IC50 was > 50 µM (inactive). In the case of `Cc1cc(C(=O)N2CCN(C3CCN(Cc4ccc(Cl)o4)CC3)C(=O)C2)c(C)o1`, the IC50 is reported as > 50 µM (inactive). Compound `Cc1ccccc1-c1nnc(-c2ccc(C(=O)NCc3ccccc3F)cc2)o1` has an IC50 of 5.8 µM. With `COc1ccc(C2SCC(=O)Nc3c2c(=O)[nH]n3C2CCCCC2)cc1` (centres undefined) the IC50 was 28.7 µM. With `CCc1ccc2[nH]c(=O)c(CN(CCc3ccc(OC)c(OC)c3)C(=O)Nc3ccccc3)cc2c1` the IC50 was > 50 µM (inactive). In the case of `Fc1ccc(CSc2nnc(-c3ccccn3)n2Cc2ccco2)cc1`, the IC50 is reported as > 50 µM (inactive). With `O=C(CNC(=O)OCc1ccccc1)Nc1ccc(Br)cc1C(=O)c1ccccc1Cl` the IC50 was 9.66 µM. With `Cc1c(C)n(-c2ccccc2)c2ncn(CC(=O)NCCCc3ccccc3)c(=O)c12` the IC50 was 34.4 µM. In the case of `O=C(O)Cc1ccc(Nc2nc3ccccc3n3nnnc23)cc1`, the IC50 is reported as > 50 µM (inactive). In the case of `CCOC(=O)[C@@H]1[C@@H](c2ccccc2)CN2CCN(C(=O)c3cnccn3)C[C@H]12`, the IC50 is reported as > 50 µM (inactive). `O=C(c1cc(-c2ccc(Cl)cc2)n[nH]1)N1CCN(C(=O)c2ccco2)CC1` showed an IC50 of 32.2 µM. `CCOc1ccccc1NC(=O)Cn1ccn2nc(-c3ccc(OC)cc3)cc2c1=O` showed an IC50 of 6.49 µM. In the case of `CCOC(=O)c1sc2nc(CC(=O)OC)nc(NCc3ccco3)c2c1C`, the IC50 is reported as > 50 µM (inactive). In the case of `Cc1ccccc1Cn1ccc(NC(=O)c2noc(C)c2[N+](=O)[O-])n1`, the IC50 is reported as > 50 µM (inactive). Compound `Cc1ccc(-c2cn(CC(=O)N3CCN(c4ccccn4)CC3)c(=O)o2)cc1` has an IC50 of 13 µM. For `COc1ccc(NC(=O)c2nc3n(n2)-c2ccccc2S(=O)(=O)N3)cn1`, the IC50 was > 50 µM (inactive). `O=c1cc(CNc2ccc(Br)cc2)nc2nc(-c3ccccc3)[nH]n12` was tested, and the IC50 was > 50 µM (inactive). With `CC(NC(=O)c1ccccc1)c1nc2ccccc2n1CC(=O)Nc1ccc2c(c1)OCO2` (centres undefined) the IC50 was 2.25 µM. Compound `Cc1cccc(NC(=O)CN2C(=O)CC(c3ccccc3)S(=O)(=O)c3ccccc32)c1C` (centres undefined) has an IC50 of 25.3 µM. `COc1ccc(S(=O)(=O)N2CCc3ccccc32)cc1C(=O)Nc1ccc2[nH]c(=O)[nH]c2c1` showed an IC50 of 4.48 µM. `CCC1(C)Cc2c(sc3nc(SCC(=O)Nc4ccc(C(C)=O)cc4)nc(N)c23)CO1` (centres undefined) was tested, and the IC50 was 34.9 µM. `O=C(CNC(=O)c1cc2ccccc2[nH]1)Nc1ccc2c(c1)OCCO2` was tested, and the IC50 was 34 µM. For `CCCCCCCCCC(CCCCCCCCCC(=O)O)O[C@H]1O[C@@H](COC(C)=O)[C@H](O)[C@@H](O)[C@H]1OC(=O)CC(=O)O` (some centres undefined), the IC50 was 22.8 µM. With `CCc1ccc(OCc2nnc(SCC(=O)Nc3ccccc3OC)n2Cc2ccccc2)cc1` the IC50 was > 50 µM (inactive). `Nc1c(-c2ccc(Cl)cc2)cnc2nc(Sc3ncc(C(F)(F)F)cc3Cl)nn12` was tested, and the IC50 was > 50 µM (inactive). `Cc1noc(C)c1COc1cccc(C(=O)Nc2cc(Cl)ccc2-n2cncn2)c1` was tested, and the IC50 was > 50 µM (inactive). Work on `CC(=O)Nc1ccc(S(=O)(=O)Nc2ccc(Nc3ccc(-n4cccn4)nn3)cc2)cc1` yielded an IC50 of 24.2 µM. `CC(=O)Nc1ccc(S(=O)(=O)NCc2ccc(C(=O)NCc3ccc(C)cc3)cc2)cc1` showed an IC50 of 27.9 µM. In the case of `NS(=O)(=O)c1cccc(NC(=O)CN2CCCc3ccccc32)c1`, the IC50 is reported as > 50 µM (inactive). For `O=C(Nc1ncc2c(n1)-c1ccccc1CC2)C1CC1`, the IC50 was 20.9 µM. `O=C(COc1ccc(F)cc1)Nc1cnc(-c2ccc(Cl)cc2)nc1` gave an IC50 of 24 µM. With `O=S(=O)(c1cccc2cccnc12)N(CCc1ccccc1)C1CCN(CCc2ccc(Cl)cc2)CC1` the IC50 was > 50 µM (inactive). With `CCN(CC)c1cc(C)c2cc(NC(=O)c3ccncc3)ccc2n1` the IC50 was > 50 µM (inactive). For `CC(C)NC(=O)CN1C(=O)CC(C)Sc2ccc(S(=O)(=O)N3CCCCC3)cc21` (centres undefined), the IC50 was 25.2 µM. `O=C(COc1ccc(Cl)cc1)Nc1noc(-c2ccccc2)n1` gave an IC50 of 22.6 µM. For `CC1CCN(Cc2nnc(-c3cn(CC(=O)NC4CCCCC4)c4ccccc34)o2)CC1`, the IC50 was > 50 µM (inactive). For `O=c1[nH]cccc1NS(=O)(=O)c1ccc(F)cc1`, the IC50 was > 50 µM (inactive). For `Cc1cc(C2CC(=O)Nc3c2c(C)nn3-c2nc3ccccc3[nH]2)c(C)s1` (centres undefined), the IC50 was 23 µM. `CCOc1ccc(NC(=O)Cn2c(=O)n(CCC(=O)NCc3ccco3)c(=O)c3ccccc32)cc1` was tested, and the IC50 was 5.43 µM. With `Cc1ccc2c(c1)c(=O)c(C(=O)c1ccccc1)cn2CC(=O)Nc1ccccc1` the IC50 was 9.87 µM. Work on `COc1cccc(NC(=O)Cc2sc(Nc3cc(C)cc(C)c3)nc2O)c1` yielded an IC50 of 17.8 µM. In the case of `Cc1nn(-c2ccc(Cl)cc2)c2[nH]c(=O)c(CNCC3CCCO3)cc12` (centres undefined), the IC50 is reported as > 50 µM (inactive). `COc1ccc(NC(=O)CSc2nc(N)c3c4c(sc3n2)COC(C)(C)C4)cc1` gave an IC50 of 42.5 µM. `Cc1ccc(NC(=O)c2ccn(COc3ccc(F)cc3)n2)nc1` gave an IC50 of 32.1 µM. For `Cc1c(-c2ccccc2)oc2c(C(=O)OCC(=O)Nc3ccccc3F)cccc2c1=O`, the IC50 was > 50 µM (inactive). Work on `O=C(COc1ccc2ccccc2c1)Nc1cccc2ccccc12` yielded an IC50 of 15.8 µM. `Cc1ccc(C)c(Nc2cc(C)nc3nc(-c4ccco4)nn23)c1` was tested, and the IC50 was > 50 µM (inactive). For `CC(=O)Nc1ccc(NC(=O)c2cc(-c3cc(C)cc(C)c3O)n[nH]2)cc1`, the IC50 was 16.3 µM. In the case of `CCC(=O)Nc1ccc2c(c1)nc(CSc1nccc(C)n1)n2CC`, the IC50 is reported as > 50 µM (inactive). With `O=C1NC(=O)/C(=C/c2ccc(OC(=O)c3ccc(Cl)cc3Cl)cc2)N1` the IC50 was 13.7 µM. `Cc1cc(/C=C2/C(=N)N3C(c4ccccc4)=CSC3=NC2=O)c(C)n1-c1ccc(F)cc1` was tested, and the IC50 was > 50 µM (inactive). For `CC(=O)c1ccc(NC(=O)C2CCN(c3cncnc3N3CCCC3)CC2)cc1`, the IC50 was > 50 µM (inactive). For `CN(C)c1cccc(C(=O)Nc2cc(-c3cccnc3)no2)c1`, the IC50 was 26.9 µM. Compound `COc1ccc(CNC(=O)CSc2nc3nc(C)ccc3o2)cc1` has an IC50 of 25 µM. With `CCn1cc2c(n1)c(=O)n(Cc1ccc(C)cc1)c(=O)n2CC(=O)Nc1ccc(F)cc1` the IC50 was 4.06 µM. For `COc1ncccc1CN1CCn2c(Cn3cncn3)cnc2C1C` (centres undefined), the IC50 was > 50 µM (inactive). With `COc1ccc(-n2c(=O)c(CCC(=O)O)nc3ccccc32)cc1` the IC50 was > 50 µM (inactive). `CCOc1ccc2[nH]c3c(=O)n(CCc4ccc(OC)cc4)cnc3c2c1` was tested, and the IC50 was 4.41 µM. Work on `O=C(Cn1nnc(-c2ccc(F)cc2)n1)NCCc1ccccc1` yielded an IC50 of 33.7 µM. Work on `O=C(COc1ccc(F)cc1)Nc1cc(F)c2nc(N3CCOCC3)ccc2c1` yielded an IC50 of 4.34 µM. Work on `COc1ccc(OC)c(NC(=O)c2ccc(-n3nnnc3SC)cc2)c1` yielded an IC50 of 29.9 µM. For `COc1cccc(-n2nnc(C(=O)Nc3ccc(C)c(C)c3)c2C)c1`, the IC50 was > 50 µM (inactive). `O=C(NCc1ccc2c(c1)OCO2)c1nc(-c2ccccc2)n(-c2ccccc2)n1` was tested, and the IC50 was > 50 µM (inactive). `O=C1C[C@@H](O)[C@H](O)[C@@]23O[C@@]12C1(Oc2cccc4cccc(c24)O1)[C@@H]1O[C@@H]1[C@@H]3O` showed an IC50 of 22 µM. For `Nc1nc(OCc2ccccc2)c2[nH]c(/C=C/c3cccs3)nc2n1`, the IC50 was 32.5 µM. With `CN(C)c1cc(-n2cnc(C(=O)NCc3ccccc3Cl)c2)ncn1` the IC50 was 41.3 µM. With `Cc1ccc(N=Cc2sc(O)c3ccccc23)c(C)c1` the IC50 was > 50 µM (inactive). `O=C(NCc1ccc(Br)cc1)c1ccc(-c2cccnc2)nc1` showed an IC50 of 37.5 µM. Work on `COc1c(O)cc(CC(=O)O)c(C(C)=O)c1O` yielded an IC50 of 11.1 µM. In the case of `Cc1nn(-c2cc(N3CCOCC3)ncn2)c(C)c1CCC(=O)Nc1ccc(C(C)C)cc1`, the IC50 is reported as 29.1 µM. With `COc1ccccc1CNC(=O)CCCn1c(=O)c2ccccc2n(CC(=O)N2CCN(c3ccccc3)CC2)c1=O` the IC50 was 29.2 µM. `CC1=C(Cn2c3cccc(=O)c-3nc3ccccc32)CCC(C)(C)C1` showed an IC50 of 1.52 µM. For `COc1ccc(CCNC(=O)c2cc(C3CC3)nc3c2cnn3C(C)C)cc1`, the IC50 was > 50 µM (inactive). With `CCc1cccc(CC)c1NC(=O)COC(=O)c1cc2cccc(OC)c2oc1=O` the IC50 was 4.93 µM. With `CC(C)(C)N=C1Nc2ncccc2NC12CCCN(C(=O)c1ccccc1)C2` (centres undefined) the IC50 was > 50 µM (inactive). In the case of `c1ccc(-n2nnc(-c3noc(-c4ccccn4)n3)c2-c2ccncc2)cc1`, the IC50 is reported as 46.6 µM. `CCCCCCCc1cc(O)cc(O)c1` was tested, and the IC50 was > 50 µM (inactive). For `COc1ccc(/C=C/C(=O)Nc2c3c(nc4c2CCC4)CCCC3)cc1`, the IC50 was 15 µM. With `O=C(c1cc(Cl)ccc1Cl)N1CCN(c2ccc3nnc(-c4ccco4)n3n2)CC1` the IC50 was > 50 µM (inactive). `Cc1ccc(CNC(=O)CCCn2c(=O)c3sccc3n(CC(=O)OCc3ccccc3)c2=O)cc1` was tested, and the IC50 was 2.5 µM. In the case of `CC1=CN2C(=N)/C(=C/c3cn(Cc4ccc(Cl)cc4)c4ccccc34)C(=O)N=C2S1`, the IC50 is reported as > 50 µM (inactive). `CC1(C)OC2=C(C(=O)c3cc(O)cc(O)c3C2=O)c2cc(CO)c(O)cc21` was tested, and the IC50 was 5.7 µM. `CC(=O)c1ccc(NC(=O)c2nc3ccccc3nc2N2CCOCC2)cc1` was tested, and the IC50 was > 50 µM (inactive). `CCCCNC(=O)c1cc2cccnc2n(Cc2ccccc2)c1=O` was tested, and the IC50 was > 50 µM (inactive). In the case of `COc1cc(C2SCC(=O)Nc3c2c(-c2ccccc2)nn3-c2ccccc2)cc(OC)c1OC` (centres undefined), the IC50 is reported as > 50 µM (inactive). With `Cc1ccc(C(=O)NCc2ccc(C(=O)Nc3ccc(C)c(C)c3)o2)cc1` the IC50 was 24.1 µM. With `O=C(NCC(c1cccnc1)N1CCc2ccccc2C1)C(=O)Nc1ccc2c(c1)OCO2` (centres undefined) the IC50 was 30.5 µM. `CN1CCC(N(C)S(=O)(=O)c2ccc(NC(=O)c3cccc(OCc4ccccc4)c3)cc2)CC1` was tested, and the IC50 was > 50 µM (inactive). For `COc1ccccc1NS(=O)(=O)c1cccc(NC(=O)CCc2nc3ccccc3s2)c1`, the IC50 was 4.09 µM. `Cc1cnc2nc3c(cc2c1)CN(S(=O)(=O)c1cc(F)ccc1C)CC3` was tested, and the IC50 was > 50 µM (inactive). With `Nc1c(C(=O)NCc2ccc3c(c2)OCO3)nnn1Cc1ccc(Br)cc1F` the IC50 was 2.8 µM. With `COc1ccc2[nH]cc(S(=O)(=O)c3ccc(C)c(F)c3)c(=O)c2c1` the IC50 was 48 µM.
